According to publication PMC8408311 (Diabetologia, 2021):
Read-outs that look alike come from different tables or passages of the source.

Tests used:
[1] = test system: C2C12 myotubes; experiment: C2-ceramide recycling and insulin response in C2C12 myotubes; type: cell-based, mouse
[2] = Ciprofibrate 5-week crossover study in prediabetic male volunteers; type: in vivo, human
[3] = test system: primary cilium of islet beta cells; experiment: Cilia Ca2+ imaging in mouse islets; type: cell-based; details: GABA 1-10 nM; GABAB-receptor agonist Baclofen; Vigabatrin (inhibition of GABA degradation)
[4] = 3-month exercise training with carnosine or placebo in overweight elderly; type: in vivo, human
[5] = test system: mouse cardiac endothelial cells (MCECs); experiment: Methylglyoxal treatment of mouse cardiac endothelial cells; type: cell-based
[6] = test system: H9C2 cells; experiment: 2-NBD-Glucose uptake; type: cell-based; details: 25μM MG 24h, after 60 min
[7] = RESTORE-2 naive cohort, retrospective propensity score matched study; type: in vivo, human
[8] = Sodium-phenylbutyrate 2-week crossover trial in type 2 diabetes
[9] = Contribution of HFCS-55 fructose to hepatic fatty acid synthesis, 13C/2H NMR; type: in vivo, mouse
[10] = type: in vivo, human; details: once weekly
[11] = training combined with carnosine 2g/day
[12] = 2-step hyperinsulinemic-euglycemic clamp

Compound: COc1ccc(/C=C/C(=O)c2c(-c3ccccc3)c3ccccc3[nH]c2=O)cc1 [ceranib-2]
- Accumulation in total endogenous Cer content ([1]; 2 h treatment, ceranib-2 alone): 50%

Compound: CC(C)(Oc1ccc(C2CC2(Cl)Cl)cc1)C(=O)O (stereo not shown) [ciprofibrate]
- Hepatic lipid content ([2]; 100 mg/day for 5 weeks): 10.4 ± 10.0%
- Serum triglycerides ([2]; 100 mg/day for 5 weeks): 1.57 ± 1.05 mmol/L
- Myocardial net glucose uptake ([2]; 18F-FDG PET during clamp): 0.040 ± 0.024 ml/100ml/min/mIU insulin
- Net hepatic glucose uptake (Ki) ([2]; 18F-FDG PET during hyperinsulinemic euglycemic clamp): 0.7 ± 0.2 ml/100ml/min

Compound: CCCCCCCCCCCCC/C=C/[C@@H](O)[C@H](CO)NC(C)=O [C2cer, C2-Cer]
- Effect on the insulin signal ([1]; at 25 mM glucose): inhibited completely the insulin signal

Compound: NCC(CC(=O)O)c1ccc(Cl)cc1 (stereo not shown) [Baclofen]
- Increase of occurrence of cilia Ca2+ flashes [3]: 3-4 fold

Compound: NCCC(=O)N[C@@H](Cc1cnc[nH]1)C(=O)O [carnosine]
- Stimulation of coupled mitochondrial respiration rate in permeabilized muscle fibers, compared to exercise alone ([4]; exercise with carnosine): 36.5%
- Improvement in aerobic fitness (VO2max) [4, 11]: 14.8%
- Improvement in metabolic flexibility (ΔRQ) [4, 11]: 7.3%
- Improvement in sit-to-stand test ([4]; training combined with carnosine 2g/day, 3 months): 9.2%

Compound: NCCCC(=O)O [GABA, Gamma aminobutyric acid]
- Increase of occurrence of cilia Ca2+ flashes [3]: 3-4 fold

Compound: CC(=O)C=O [MG, methylglyoxal]
- Hspa9 mRNA, mean ([5]; 500 μM, Hspa1a/Hspa1b KO cells): 1.52 fold
- Hspa9 protein, mean ([5]; 500 μM, Hspa1a/Hspa1b KO cells): 3.17
- Hspd1 mRNA, mean ([5]; 500 μM, Hspa1a/Hspa1b KO cells): 1.57 fold
- Hspd1 protein, mean ([5]; 500 μM, Hspa1a/Hspa1b KO cells): 3.84
- Drp1 mRNA ([5]; 500 μM, wild-type cells): 1.39 fold
- Hspa1a mRNA, mean ([5]; 500 μM, wild-type cells): 1.57 fold
- Hspa1a/Hspa1b protein level, mean ([5]; 500 μM, wild-type cells): 1.56 fold
- Hspa1b mRNA, mean ([5]; 500 μM, wild-type cells): 1.78 fold
- Hspa9 mRNA, mean ([5]; 500 μM, wild-type cells): 1.42 fold
- Hspa9 protein, mean ([5]; 500 μM, wild-type cells): 1.96 fold
- Hspd1 mRNA, mean ([5]; 500 μM, wild-type cells): 2.11 fold
- Hspd1 protein, mean ([5]; 500 μM, wild-type cells): 2.35 fold
- Drp1 mRNA, mean ([5]; Hspa1a/Hspa1b KO cells): 2.11
- Bnip3, mean ([5]; after MG treatment): 0.39 fold
- Parkin, mean ([5]; after MG treatment): 0.45 fold
- Pink1, mean ([5]; after MG treatment): 0.69 fold
- 2-NBD-Glucose uptake after MG ([6]; 20mM glucose, printed 54% vs 44%): 54%
- 2-NBD-Glucose uptake after MG ([6]; 30 mM glucose, printed 50% vs 39%): 50%

Compound: C=CC(N)CCC(=O)O (stereo not shown) [Vigabatrin]
- Increase of occurrence of cilia Ca2+ flashes [3]: 3-4 fold

Compound: Insulin Degludec 100 U/mL [IDeg-100]
- Incidence rate of blood glucose <54 mg/dl ([7]; during 6 months): 0.02 episodes per patient-months
- Incidence rate of blood glucose ≤70 mg/dl ([7]; during 6 months): 0.14 episodes per patient-months
- FBG change at 6 months ([7]; in vivo): -61 mg/dL
- FBG reduction at 6 months ([7]; in vivo): 3.4 mmol/L
- HbA1c reduction from baseline to 12 months ([7]; in vivo): -1.44%
- HbA1c change from baseline to 6 months ([7]; propensity score matched, 357 per cohort): -1.69%

Compound: O=C(O)CCCc1ccccc1 [NaPB, sodium-phenylbutyrate]
- Peripheral insulin sensitivity, higher than placebo [8, 12]: 27%
- ΔRd (insulin-stimulated glucose disposal rate minus baseline) [8, 12]: 13.2 ± 1.8 µmol/kg/min
- Increase of plasma phenylbutyrate levels vs placebo ([8]; 4.8 g/m²/day for 2 weeks, LCMS): 5.5 fold
- Fasting glucose ([8]; after 2 weeks): 7.8 ± 0.4 mmol/L
- Fasting plasma isoleucine ([8]; after 2 weeks): 105.2 ± 3.5 µmol/L
- Fasting plasma leucine ([8]; after 2 weeks): 168.7 ± 5.1 µmol/L
- Fasting plasma valine ([8]; after 2 weeks): 275.3 ± 10.3 µmol/L
- Peripheral insulin-mediated glucose oxidation ([8]; clamp): 11.9 ± 0.7 µmol/kg/min
- ΔRER (metabolic flexibility) ([8]; clamp): 0.09 ± 0.01
- O2-flux, maximally coupled mitochondrial respiration fueled by pyruvate ([8]; skeletal muscle ex vivo): 74.0 ± 4.1 pmol/s/mg

Compound: O=C(CO)[C@@H](O)[C@H](O)[C@H](O)CO [fructose]
- contribution of acetyl-CoA to oleate synthesis ([9]; HFHS mice): 7 ± 2%
- contribution of acetyl-CoA to palmitoleate synthesis ([9]; HFHS mice): 7 ± 2%
- contribution of acetyl-CoA to the synthesis of SFA ([9]; HFHS mice): 18 ± 3%
- contribution of acetyl-CoA to oleate synthesis ([9]; HS mice): 16 ± 3%
- contribution of acetyl-CoA to palmitoleate synthesis ([9]; HS mice): 18 ± 3%
- contribution of acetyl-CoA to the synthesis of SFA ([9]; HS mice, mean ± standard error): 28 ± 4%

Compound: Basal insulin Fc [BIF]
- HbA1c reduction from baseline to Week 32, mean±SE ([10]; BIF-A1, fasting glucose target ≤7.8 mmol/L): 0.6±0.1%
- HbA1c reduction from baseline to Week 32, mean±SE ([10]; BIF-A2, fasting glucose target ≤6.7 mmol/L): 0.6±0.1%
